Measurements from ChEMBL document CHEMBL5543078, “Peptidomimetics as potent dual SARS-CoV-2 cathepsin-L and main protease inhibitors: In silico design, synthesis and pharmacological characterization” (Eur J Med Chem, 2024).
Non-standard residues stand in square brackets, D forms with d. Residues, ends and D or L forms follow the SMILES beside them. *: point of attachment. AllylGly = C=CC[C@H](N)C(=O)O; Acryloyl = C=CC(=O)*; NHBn = c1ccc(CN*)cc1; ClAc = O=C(CCl)*

System: SARS-CoV-2
Test: microbe, parasite or virus in culture
Conditions: Severe acute respiratory syndrome coronavirus 2, RG-2674 (Beta), Vero

Structure (SMILES) | EC50 [nM]
C=CC[C@H](NC(=O)CCl)C(=O)N[C@@H](CC=C)C(=O)N[C@H](CNCc1ccccc1)Cc1c[nH]c2ccccc12 | 2160
CC(C)C[C@@H](NC(=O)CCl)C(=O)N[C@@H](Cc1c[nH]c2ccccc12)C(=O)NCc1ccccc1 | 70
O=C(CS)N[C@@H](Cc1ccccc1)C(=O)N[C@@H](Cc1c[nH]c2ccccc12)C(=O)NCc1ccccc1 | > 100000
C=CC[C@H](NC(=O)CCl)C(=O)N[C@@H](Cc1c[nH]c2ccccc12)C(=O)NCCN1CCOCC1 | 5900
CC(C)C[C@H](NC(=O)CCl)C(=O)N[C@H](Cc1c[nH]c2ccccc12)C(=O)NCc1ccccc1 | 8930
CC(C)C[C@@H](C(=O)NCC12CC3CC(CC(C3)C1)C2)N(Cc1ccccc1)C(=O)CCl | > 4000
CC(C)C[C@H](NC(=O)CCl)C(=O)N[C@@H](Cc1c[nH]c2ccccc12)C(=O)NCc1ccccc1 | 440
C=CC(=O)N[C@@H](CC(C)C)C(=O)N[C@@H](Cc1c[nH]c2ccccc12)C(=O)NCc1ccccc1 | > 100000
C=CC(=O)N[C@@H](Cc1ccccc1)C(=O)N[C@@H](Cc1c[nH]c2ccccc12)C(=O)NCc1ccccc1 (Acryloyl-Phe-Trp-NHBn) | > 20000
O=C(CCl)NCC(=O)N[C@@H](Cc1c[nH]c2ccccc12)C(=O)NCc1ccccc1 (ClAc-Gly-Trp-NHBn) | 70
CC(C)C[C@H](NC(=O)CCl)C(=O)N[C@@H](Cc1ccccc1)C(=O)N[C@@H](Cc1c[nH]c2ccccc12)C(=O)NCc1ccccc1 (ClAc-Leu-Phe-Trp-NHBn) | > 20000
COC(=O)[C@H](CCC(N)=O)NC(=O)[C@H](Cc1c[nH]c2ccccc12)NC(=O)[C@H](CC(C)C)NC(=O)CCl (ClAc-Leu-Trp-Gln-OMe) | > 100000
O=C(CCl)N[C@@H](Cc1ccccc1)C(=O)N[C@@H](Cc1c[nH]c2ccccc12)C(=O)NCc1ccccc1 (ClAc-Phe-Trp-NHBn) | 70
CC(C)C[C@H](NC(=O)[C@H](Cc1c[nH]c2ccccc12)NC(=O)CCl)C(=O)NCc1ccccc1 (ClAc-Trp-Leu-NHBn) | 260
COC(=O)[C@H](CC(C)C)NC(=O)[C@H](Cc1c[nH]c2ccccc12)NC(=O)CCl (ClAc-Trp-Leu-OMe) | > 4000
O=C(CCl)N[C@@H](Cc1ccc(O)cc1)C(=O)N[C@@H](Cc1c[nH]c2ccccc12)C(=O)NCc1ccccc1 (ClAc-Tyr-Trp-NHBn) | 3320
C=CC[C@H](NC(=O)CCl)C(=O)N[C@@H](Cc1c[nH]c2ccccc12)C(=O)NCc1ccccc1 (ClAc-[AllylGly]-Trp-NHBn) | 460
CC(C)C(=O)OC[C@H]1O[C@@H](n2ccc(NO)nc2=O)[C@H](O)[C@@H]1O [MOLNUPIRAVIR] | 2810
CCC(CC)COC(=O)[C@H](C)N[P@](=O)(OC[C@H]1O[C@@](C#N)(c2ccc3c(N)ncnn23)[C@H](O)[C@@H]1O)Oc1ccccc1 [REMDESIVIR] | 2400
